Assay results as given in patent US20130192322A1, “Plant Fertilizers Derived from Organic Nitrogen and Phosphorus Sources” (priority 2011, published 2013).

Test system: Tomato (var. Pink Girl)
Assay: Example 4: effect of enzymatically hydrolyzed protein and phytic acid on tomato growth in greenhouse mix
Type: in vivo
Experimental: Tomato (var. Pink Girl) were grown in a greenhouse mix (⅓ each of components, soil, peat moss and vermiculite). The treatments were arranged in randomized design with 3 replicates for each treatment. Seedlings were harvested and tops weighed forty six days after planting. Treatments included additions of phytic acid and protein hydrolyzate separately and in combination at different concentrations and applied to the soil and as foliar. First application, made two weeks after planting, was both as a foliar and to the soil (50 ml/plant). The second application, made two weeks following the first,) was both to soil (80 ml/plant) and as a foliar.

O=P(O)(O)O[C@H]1[C@H](OP(=O)(O)O)[C@@H](OP(=O)(O)O)[C@H](OP(=O)(O)O)[C@@H](OP(=O)(O)O)[C@H]1OP(=O)(O)O [Phytic Acid, phytic acid]
% of control (0.04% P2O5, Foliar): 109%
Av. Top fresh wt. of plants (0.04% P2O5, Foliar): 27.0 gm
% of control (0.04% P2O5, Soil application): 109%
Av. Top fresh wt. of plants (0.04% P2O5, Soil application): 27.0 gm
% of control (0.1% P2O5, Foliar): 107%
Av. Top fresh wt. of plants (0.1% P2O5, Foliar): 26.3 gm
% of control (0.1% P2O5, Soil application): 128%
Av. Top fresh wt. of plants (0.1% P2O5, Soil application): 31.5 gm
